We go through one compound from article PMC11868579 (Nature Communications, 2024).

One data set relates to SW620 cells. The data set can be described thus: CellTiter-Blue cell viability, SW620. It is filed as cell-based, human. The settings on record: SW620, 4 days. The procedure:
Cell viability was measured by CellTiter-Blue® Cell Viability Assay. Cells were seeded in 96 well plates (Corning, cat#353072) and left overnight. Compounds were added at a range of concentrations and plates incubated at 37 °C for 96 hr. Cell titre blue reagent (Promega, Hampshire, UK, cat# G8081) was added (5 μl/well) and incubated for a further 2 h at 37 °C. Fluorescence (579Ex/584Em) was measured using a PHERAstar plate reader.
Supplementary Fig. 10 Determination of the effects of compound 4 on protein synthesis and viability. a HEK293 cells were transfected with protein synthesis reporter expressing bicistonic mRNA with a cap-dependent luciferase reporter and a cap-independent luciferase driven by a viral IRES. Cells were treated with 1 or 10 µM with compound 4 for 24 hr. Luminescence was measured using the Dual-glo luciferase assay (mean ± SEM from 3 biological replicates). b SW620 cells were transfected with a c-Myc-regulated firefly luciferase expression reporter or a constitutive CMV promoter-regulated renilla luciferase reporter. Cells were treated for 24 hr with 1 or 10 µM compound 4 or the […] kinase inhibitor AZD8055 as positive control (mean ± SEM from 3 biological replicates). […]
vs 1 µM AZD8055). c Cell viability measured by cell titre blue assay was performed in SW620 cells treated with compound 4 for 4 days (mean ± SEM from 3 biological replicates). […]

Data set [1] in a line: Human microsomal clearance assay. It is filed as in vitro ADME.
Data set [2] in a line: Plasma protein binding, rapid equilibrium dialysis. It is filed as in vitro ADME. As to conditions: human plasma, 1 µM, 16 hrs. Here is the method:
Measurement of aqueous kinetic solubility at pH 7.5
Solubility was measured in 50 mM HEPES, 100 mM NaCl (15% D2O, 85% H2O) in the presence of 1 mM TCEP at pH 7.5. Samples were prepared at 50 mM in DMSO-d6, diluted x 50 into buffer affording nominal concentrations of 1 mM and analysed by 1H quantitative NMR. Spectra were acquired at 300K in 5 mm tubes on a 400 MHz Bruker Avance III HD spectrometer equipped with a BBO-F probe using water suppression (presat/Watergate). A 5 mM sample of 4-hydroxybenzoic acid was used as the qNMR standard. The raw data files were processed using MNova with qNMR […]
Caco-2 permeability Assay
The permeability of Compound 4 was assessed using the CacoReady system.
Compound 4 and control compounds (propranolol, antipyrine, and vinblastine) were incubated at a final concentration of 10 µM in duplicate to either the apical (180 µL) of the monolayer to measure apical to basolateral transport (A > B) across the cell barrier or to the basolateral side (750 µL) to measure the basolateral to apical transport (B > A). […]
Plasma protein binding measured using the rapid equilibrium dialysis (RED) device system. […] Percent bound was calculated as the ([plasma cmpt] / [plasma cmpt + […]
In general terms: In equilibrium dialysis only unbound substance equilibrates across the membrane.

Regarding `CC[C@H](O[C@H](C)CO)c1ccc(-c2ccccc2F)cc1NCCO` [Compound 4], the antiproliferative activity result in the data set with SW620 cells is “lacked on-target antiproliferative activity”. Further, the “Human microsomal intrinsic clearance” value in data set [1] (1 µM, 0.25 mg/mL microsomes) was found to be 210 µL/min/mg protein. The “clearance in human liver microsomes” value in data set [1] (human) is recorded as “moderate clearance”. The compound further displayed a Plasma protein binding in data set [2] of 98.9%.
